Source: patent US20150218212A1, “FLUORINATED EPOXYKETONE-BASED TETRAPEPTIDE COMPOUNDS AND USES THEREOF AS PROTEASOME INHIBITORS” (FLUORINOV PHARMA INC., priority 2012, published 2015)

Assays:
Format in all cases: cell-based, human
MOLT-4 = experiment: NCI screening panel, MOLT-4 (Leukemia)
Summary of the method: (§1)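 Read-out is absorbance at 515 nm of sulforhodamine B bound to TCA-fixed cellular protein after 48 h compound treatment at 37 °C. Five concentrations are tested per compound. GI50 reflects 50% inhibition of net growth; TGI marks no net growth; LC50 marks 50% cell loss relative to start.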

SR = experiment: NCI screening panel, SR (Leukemia)
Summary of the method: as §1

A549/ATCC = experiment: NCI screening panel, A549/ATCC (Non-Small Cell Lung Cancer)
Summary of the method: (§2)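 Cells were exposed for 48 h at 37 °C, 5% CO2 to five compound concentrations (10-fold or ½ log dilutions from DMSO stocks), then fixed with cold TCA and stained with sulforhodamine B, with absorbance read at 515 nm. GI50, TGI and LC50 were derived relative to a time-zero plate.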

NCI-H23 = experiment: NCI screening panel, NCI-H23 (Non-Small Cell Lung Cancer)
Summary of the method: as §2

NCI-H322M = experiment: NCI screening panel, NCI-H322M (Non-Small Cell Lung Cancer)
Summary of the method: as §2

NCI-H522 = experiment: NCI screening panel, NCI-H522 (Non-Small Cell Lung Cancer)
Summary of the method: as §2

HCT-116 = experiment: NCI screening panel, HCT-116 (Colon Cancer)
Summary of the method: as §2

HCT-15 = experiment: NCI screening panel, HCT-15 (Colon Cancer)
Summary of the method: as §2

HT29 = experiment: NCI screening panel, HT29 (Colon Cancer)
Summary of the method: as §2

MALME-3M = experiment: NCI screening panel, MALME-3M (Melanoma)
Description: Representative compounds of Formula I were screened using the National Cancer Institute (NCI) screening panel, which consists of a panel of human tumor cell lines, representing leukemia, melanoma, and cancers of the lung, colon, ovary, breast, prostate and renal system.
After 24 h, two plates of each cell line are fixed in situ with TCA, to represent a measurement of the cell population for each cell line at the time of drug addition (Tz). Experimental drugs are solubilised in dimethyl sulfoxide at 400-fold the desired final maximum test concentration and stored frozen prior to use. At the time of drug addition, an aliquot of frozen concentrate is thawed and diluted to twice the desired final maximum test concentration with complete medium containing 50 μg/mL gentamicin. Additional four, 10-fold or ½ log serial dilutions are made to provide a total of five drug concentrations plus control. Aliquots of 100 μl of these different drug dilutions are added to the appropriate microtiter wells already containing 100 μl of medium, resulting in the required final drug concentrations.
Following drug addition, the plates are incubated for an additional 48 h at 37° C., 5% CO2, 95% air, and 100% relative humidity. For adherent cells, the assay is terminated by the addition of cold TCA (trichloroacetic acid). Cells are fixed in situ by the gentle addition of 50 μl of cold 50% (w/v) TCA (final concentration, 10% TCA) and incubated for 60 minutes at 4° C. The supernatant is discarded, and the plates are washed five times with tap water and air dried. Sulforhodamine B (SRB) solution (100 μl) at 0.4% (w/v) in 1% acetic acid is added to each well, and plates are incubated for 10 minutes at room temperature. After staining, unbound dye is removed by washing five times with 1% acetic acid and the plates are air dried. Bound stain is subsequently solubilised with 10 mM trizma base, and the absorbance is read on an automated plate reader at a wavelength of 515 nm. For suspension cells, the methodology is the same except that the assay is terminated by fixing settled cells at the bottom of the wells by gently adding 50 μl of 80% TCA (final concentration, 16% TCA). Using the seven absorbance measurements [time zero, (Tz), control growth, (C), and test growth in the presence of drug at the five concentration levels (Ti)], the percentage growth is calculated at each of the drug concentrations levels. Percentage growth inhibition is calculated as: [(Ti−Tz)/(C−Tz)]×100 for concentrations for which Ti>/=Tz and [(Ti−Tz)/Tz]×100 for concentrations for which Ti<Tz.
Three dose response parameters are calculated for each experimental agent. Growth inhibition of 50% (GI50) is calculated from [(Ti−Tz)/(C−Tz)]×100=50, which is the drug concentration resulting in a 50% reduction in the net protein increase (as measured by SRB staining) in control cells during the drug incubation. The drug concentration resulting in total growth inhibition (TGI) is calculated from Ti=Tz. The LC50 (concentration of drug resulting in a 50% reduction in the measured protein at the end of the drug treatment as compared to that at the beginning) indicating a net loss of cells following treatment is calculated from [(Ti−Tz)/Tz]×100=−50. Values are calculated for each of these three parameters if the level of activity is reached. However, if the effect is not reached or is exceeded, the value for that parameter is expressed as greater or less than the maximum or minimum concentration tested.

M14 = experiment: NCI screening panel, M14 (Melanoma)
Summary of the method: as §2

SK-MEL-2 = experiment: NCI screening panel, SK-MEL-2 (Melanoma)
Summary of the method: as §2

SK-MEL-28 = experiment: NCI screening panel, SK-MEL-28 (Melanoma)
Summary of the method: as §2

SK-MEL-5 = experiment: NCI screening panel, SK-MEL-5 (Melanoma)
Summary of the method: as §2

UACC-62 = experiment: NCI screening panel, UACC-62 (Melanoma)
Summary of the method: as §2

OVCAR-3 = experiment: NCI screening panel, OVCAR-3 (Ovarian Cancer)
Summary of the method: as §2

OVCAR-5 = experiment: NCI screening panel, OVCAR-5 (Ovarian Cancer)
Summary of the method: as §2

SN12C = experiment: NCI screening panel, SN12C (Renal Cancer)
Summary of the method: as §2

TK-10 = experiment: NCI screening panel, TK-10 (Renal Cancer)
Summary of the method: as §2

CC(C)C[C@H](NC(=O)[C@H](Cc1ccccc1)NC(=O)[C@H](COC(F)F)NC(=O)[C@H](COC(F)F)NC(=O)CN1CCOCC1)C(=O)[C@@]1(C)CO1 [Example 11, (2S)-2-[[(2S)-3-(difluoromethoxy)-2-[[(2S)-3-(difluoromethoxy)-2-[(2-morpholinoacetyl)-amino]propanoyl]amino]propanoyl]amino]-N-[(1S)-3-methyl-1-[(2R)-2-methyloxirane-2-carbonyl]butyl]-3-phenyl-propanamide]
Log10GI50 (MOLT-4): <−8.00 | Log10LC50 (MOLT-4): >−4.00 | Log10TGI50 (MOLT-4): −6.83 | Log10GI50 (SR): −7.82 | Log10LC50 (SR): >−4.00 | Log10TGI50 (SR): >−4.00 | Log10GI50 (A549/ATCC): −7.40 | Log10TGI50 (A549/ATCC): >−4.00 | Log10GI50 (NCI-H23): −7.50 | Log10LC50 (NCI-H23): >−4.00 | Log10TGI50 (NCI-H23): −5.55 | Log10GI50 (NCI-H322M): −6.85 | Log10LC50 (NCI-H322M): −4.06 | Log10TGI50 (NCI-H322M): −6.03 | Log10GI50 (NCI-H522): −7.72 | Log10LC50 (NCI-H522): >−4.00 | Log10TGI50 (NCI-H522): −7.15 | Log10GI50 (HCT-116): <−8.00 | Log10LC50 (HCT-116): −4.54 | Log10TGI50 (HCT-116): −7.06 | Log10GI50 (HCT-15): −6.00 | Log10LC50 (HCT-15): >−4.00 | Log10TGI50 (HCT-15): −4.42 | Log10GI50 (HT29): −7.70 | Log10LC50 (HT29): >−4.00 | Log10TGI50 (HT29): −5.91 | Log10GI50 (MALME-3M): −7.14 | Log10LC50 (MALME-3M): >−4.00 | Log10TGI50 (MALME-3M): −6.30 | Log10GI50 (M14): −7.21 | Log10LC50 (M14): >−4.00 | Log10TGI50 (M14): −5.91 | Log10GI50 (SK-MEL-2): −7.48 | Log10LC50 (SK-MEL-2): >−4.00 | Log10TGI50 (SK-MEL-2): −6.68 | Log10GI50 (SK-MEL-28): −7.20 | Log10LC50 (SK-MEL-28): >−4.00 | Log10TGI50 (SK-MEL-28): −5.55 | Log10GI50 (SK-MEL-5): −7.45 | Log10LC50 (SK-MEL-5): −6.23 | Log10TGI50 (SK-MEL-5): −6.83 | Log10GI50 (UACC-62): −7.52 | Log10LC50 (UACC-62): >−4.00 | Log10TGI50 (UACC-62): −6.73 | Log10GI50 (OVCAR-3): −7.66 | Log10LC50 (OVCAR-3): −6.82 | Log10TGI50 (OVCAR-3): −7.31 | Log10GI50 (OVCAR-5): −7.37 | Log10LC50 (OVCAR-5): >−4.00 | Log10TGI50 (OVCAR-5): −6.46 | Log10GI50 (SN12C): −7.20 | Log10LC50 (SN12C): −5.39 | Log10TGI50 (SN12C): −6.50 | Log10GI50 (TK-10): −6.80 | Log10LC50 (TK-10): >−4.00 | Log10TGI50 (TK-10): −5.30

CC(C)C[C@H](NC(=O)[C@H](COC(F)F)NC(=O)[C@H](COC(F)F)NC(=O)[C@H](COC(F)F)NC(=O)CN1CCOCC1)C(=O)[C@@]1(C)CO1 [Example 17, (2S)-3-(difluoromethoxy)-N-[(1S)-1-(difluoromethoxymethyl)-2-[[(1S)-1-(difluoro-methoxymethyl)-2-[[(1S)-3-methyl-1-[(2R)-2-methyloxirane-2-carbonyl]butyl]amino]-2-oxo-ethyl]amino]-2-oxo-ethyl]-2-[(2-mor-pholinoacetyl)amino]-propanamide]
Log10GI50 (MOLT-4): −7.42 | Log10LC50 (MOLT-4): >−4.00 | Log10TGI50 (MOLT-4): −6.41 | Log10GI50 (SR): −7.27 | Log10TGI50 (SR): >−4.00 | Log10GI50 (A549/ATCC): −6.99 | Log10LC50 (A549/ATCC): >−4.00 | Log10TGI50 (A549/ATCC): −5.06 | Log10GI50 (NCI-H23): −7.15 | Log10LC50 (NCI-H23): >−4.00 | Log10TGI50 (NCI-H23): −5.98 | Log10GI50 (NCI-H322M): −6.58 | Log10LC50 (NCI-H322M): −4.92 | Log10TGI50 (NCI-H322M): −5.73 | Log10GI50 (NCI-H522): −7.40 | Log10LC50 (NCI-H522): −5.25 | Log10TGI50 (NCI-H522): −6.64 | Log10GI50 (HCT-116): −7.45 | Log10LC50 (HCT-116): −4.50 | Log10TGI50 (HCT-116): −6.60 | Log10GI50 (HCT-15): −5.28 | Log10LC50 (HCT-15): >−4.00 | Log10TGI50 (HCT-15): >−4.00 | Log10GI50 (HT29): −7.30 | Log10LC50 (HT29): >−4.00 | Log10TGI50 (HT29): −6.28 | Log10GI50 (MALME-3M): −6.76 | Log10LC50 (MALME-3M): >−4.00 | Log10TGI50 (MALME-3M): −6.09 | Log10GI50 (M14): −6.59 | Log10LC50 (M14): >−4.00 | Log10TGI50 (M14): −5.41 | Log10GI50 (SK-MEL-2): −7.27 | Log10LC50 (SK-MEL-2): −5.76 | Log10TGI50 (SK-MEL-2): −6.60 | Log10GI50 (SK-MEL-28): −6.97 | Log10LC50 (SK-MEL-28): >−4.00 | Log10TGI50 (SK-MEL-28): −5.69 | Log10GI50 (SK-MEL-5): −7.10 | Log10LC50 (SK-MEL-5): −6.01 | Log10TGI50 (SK-MEL-5): −6.53 | Log10GI50 (UACC-62): −7.14 | Log10LC50 (UACC-62): −5.39 | Log10TGI50 (UACC-62): −6.42 | Log10GI50 (OVCAR-3): −7.30 | Log10LC50 (OVCAR-3): −6.05 | Log10TGI50 (OVCAR-3): −6.65 | Log10GI50 (OVCAR-5): −6.55 | Log10LC50 (OVCAR-5): >−4.00 | Log10TGI50 (OVCAR-5): −5.71 | Log10GI50 (SN12C): −6.71 | Log10LC50 (SN12C): −5.06 | Log10TGI50 (SN12C): −6.08 | Log10GI50 (TK-10): −6.30 | Log10LC50 (TK-10): >−4.00 | Log10TGI50 (TK-10): −4.85
